pIC50: −log10 of the molar value.
Target: T1, MAOA (monoamine oxidase A) (Homo sapiens, UniProt P21397)
T1 construct: recombinant human MAOA (M7316-1VL)
T1 sequence (P21397 1-527): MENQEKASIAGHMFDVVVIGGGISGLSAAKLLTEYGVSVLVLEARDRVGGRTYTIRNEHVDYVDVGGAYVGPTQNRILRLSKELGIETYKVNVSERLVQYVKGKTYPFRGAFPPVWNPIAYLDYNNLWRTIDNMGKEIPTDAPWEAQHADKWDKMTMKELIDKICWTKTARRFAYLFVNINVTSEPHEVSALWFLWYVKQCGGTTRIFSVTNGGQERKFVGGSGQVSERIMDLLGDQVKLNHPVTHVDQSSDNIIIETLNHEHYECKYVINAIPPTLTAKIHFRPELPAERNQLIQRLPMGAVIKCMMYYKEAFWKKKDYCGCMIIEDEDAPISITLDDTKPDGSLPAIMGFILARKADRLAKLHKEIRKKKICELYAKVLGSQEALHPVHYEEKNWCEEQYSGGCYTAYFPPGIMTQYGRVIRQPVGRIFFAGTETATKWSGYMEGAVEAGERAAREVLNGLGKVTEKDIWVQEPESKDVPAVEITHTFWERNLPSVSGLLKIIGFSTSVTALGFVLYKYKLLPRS
Test: MAO-Glo activity assay with recombinant MAOA (IC50 […] in PEG, […] in PBS); fluorescent SDS-PAGE band of pure protein
Format: biochemical

pIC50: 5.80
Structure (SMILES): C#CCN(CCCNC(=O)CCCCC[N+]1=C(/C=C/C2=C(Cl)C(=C/C=C3\N(CCCCCC(=O)[O-])c4ccccc4C3(C)C)/CCC2)C(C)(C)c2ccccc21)CCCOc1ccc(Cl)cc1Cl [NMI]
